Tests used:
[1] = Chemical stability in simulated intestinal fluid assessed as parent compound remaining incubated for 12 hrs by LC-MS/MS analysis; type: ADME, physicochemical; settings: simulated gi fluid
[2] = Chemical stability in simulated gastric fluid assessed as parent compound remaining incubated for 12 hrs by LC-MS/MS analysis; type: ADME, physicochemical; settings: simulated gi fluid
[3] = Chemical stability of compound in pH 1.2 HCl buffer at 100 uM incubated for 24 hrs by HPLC analysis; type: physicochemical; settings: pH 1.2, 24 h
[4] = Chemical stability of compound in pH 4.5 PBS buffer at 100 uM incubated for 24 hrs by HPLC analysis; type: physicochemical; settings: pH 4.5, 24 h
[5] = Chemical stability of compound in pH 7.4 PBS buffer at 100 uM incubated for 24 hrs by HPLC analysis; type: physicochemical; settings: pH 7.4, 24 h
[6] = Prodrug conversion in Sprague-Dawley rat colon content suspension assessed as tofacitinib release measured upto 8 hrs by HPLC analysis; type: ADME, tissue-based
[7] = Prodrug conversion in Sprague-Dawley rat assessed as AUC (0 to infinity) of tofacitinib at 15 mg/kg, po measured up to 12 hrs by LC-MS/MS analysis; type: ADME, organism-based; set-up: route oral, dose 15 mg/kg, time <=12; settings: in vivo
[8] = Prodrug conversion in Sprague-Dawley rat assessed as Cmax of tofacitinib at 15 mg/kg, po measured up to 12 hrs by LC-MS/MS analysis; type: ADME, organism-based; set-up: route oral, dose 15 mg/kg, time <=12; settings: in vivo
[9] = Prodrug conversion in Sprague-Dawley rat assessed as Tmax of tofacitinib at 15 mg/kg, po measured up to 12 hrs by LC-MS/MS analysis; type: ADME, organism-based; settings: in vivo
[10] = Prodrug conversion in Sprague-Dawley rat assessed as elimination half life of tofacitinib at 15 mg/kg, po measured up to 12 hrs by LC-MS/MS analysis; type: ADME, organism-based; settings: in vivo
[11] = Prodrug conversion in BALB/c mouse plasma assessed as tofacitinib AUC(0 to 12 hrs) at 15 mg/kg, po measured upto 12 hrs by LC-MS/MS analysis; type: ADME, organism-based; set-up: route oral, dose 15 mg/kg, time <=12; settings: in vivo
[12] = Prodrug conversion in BALB/c mouse duodenum assessed as tofacitinib AUC(0 to 12 hrs) at 15 mg/kg, po measured upto 12 hrs by LC-MS/MS analysis; type: ADME, organism-based; set-up: route oral, dose 15 mg/kg, time <=12; settings: in vivo
[13] = Prodrug conversion in BALB/c mouse jejunum assessed as tofacitinib AUC(0 to 12 hrs) at 15 mg/kg, po measured upto 12 hrs by LC-MS/MS analysis; type: ADME, organism-based; set-up: route oral, dose 15 mg/kg, time <=12; settings: in vivo
[14] = Prodrug conversion in BALB/c mouse ileum assessed as tofacitinib AUC(0 to 12 hrs) at 15 mg/kg, po measured upto 12 hrs by LC-MS/MS analysis; type: ADME, organism-based; set-up: route oral, dose 15 mg/kg, time <=12; settings: in vivo
[15] = Prodrug conversion in BALB/c mouse colon assessed as tofacitinib AUC(0 to 12 hrs) at 15 mg/kg, po measured upto 12 hrs by LC-MS/MS analysis; type: ADME, organism-based; set-up: route oral, dose 15 mg/kg, time <=12; settings: in vivo

SMILES	Stability [1]	Stability [2]	Stability [3]	Stability [4]	Stability [5]	Drug metabolism [6] [mmol/L/h]	AUC [7] [µM·h]	Cmax [8] [µM]	Tmax [9] [h]	beta t1/2 [10] [h]	AUC [11] [µM·h]	AUC [12] [µM·h]	AUC [13] [µM·h]	AUC [14] [µM·h]	AUC [15] [µM·h]
C[C@@H]1CCN(C(=O)CC#N)C[C@@H]1N(C)c1ncnc2c1ccn2C(=O)N(C)CCN(C)C(=O)OCc1ccc(/N=N/c2ccc(O)c(C(=O)O)c2)c(Cl)c1	Stable	Stable	Stable	Stable	Stable	2.93									
C[C@@H]1CCN(C(=O)CC#N)C[C@@H]1N(C)c1ncnc2[nH]ccc12.O=C(O)CC(O)(CC(=O)O)C(=O)O [TOFACITINIB CITRATE]							70.66	54.9	0.42	3.94	7.1	67	43	50.3	167

The next lines start with the values.

Stability [1]	Stability [2]	Stability [3]	Stability [4]	Stability [5]	Drug metabolism [6] [mmol/L/h]	AUC [7] [µM·h]	Cmax [8] [µM]	Tmax [9] [h]	beta t1/2 [10] [h]	AUC [11] [µM·h]	AUC [12] [µM·h]	AUC [13] [µM·h]	AUC [14] [µM·h]	AUC [15] [µM·h]	SMILES
Stable	Stable	Stable	Stable	Stable	2.72										Cc1cc(/N=N/c2ccc(O)c(C(=O)O)c2)ccc1COC(=O)N(C)CCN(C)C(=O)n1ccc2c(N(C)[C@H]3CN(C(=O)CC#N)CC[C@H]3C)ncnc21
Stable	Stable	Stable	Stable	Stable	2.87										C[C@@H]1CCN(C(=O)CC#N)C[C@@H]1N(C)c1ncnc2c1ccn2CNC(=O)OCc1ccc(/N=N/c2ccc(O)c(C(=O)O)c2)cc1
Stable	Stable	Stable	Stable	Stable	2.114										C[C@@H]1CCN(C(=O)CC#N)C[C@@H]1N(C)c1ncnc2c1ccn2C(=O)N(C)CCN(C)C(=O)OCc1ccc(/N=N/c2ccc(O)c(C(=O)O)c2)cc1

— ChEMBL document CHEMBL5046297, “Discovery of a Colon-Targeted Azo Prodrug of Tofacitinib through the Establishment of Colon-Specific Delivery Systems Constructed by 5-ASA-PABA-MAC and 5-ASA-PABA-Diamine for the Treatment of Ulcerative Colitis” (J Med Chem, 2022)
